For orientation: Ki means a measure of affinity in units of concentration, obtained from inhibition or displacement.

T1 sequence (O43193 whole entry): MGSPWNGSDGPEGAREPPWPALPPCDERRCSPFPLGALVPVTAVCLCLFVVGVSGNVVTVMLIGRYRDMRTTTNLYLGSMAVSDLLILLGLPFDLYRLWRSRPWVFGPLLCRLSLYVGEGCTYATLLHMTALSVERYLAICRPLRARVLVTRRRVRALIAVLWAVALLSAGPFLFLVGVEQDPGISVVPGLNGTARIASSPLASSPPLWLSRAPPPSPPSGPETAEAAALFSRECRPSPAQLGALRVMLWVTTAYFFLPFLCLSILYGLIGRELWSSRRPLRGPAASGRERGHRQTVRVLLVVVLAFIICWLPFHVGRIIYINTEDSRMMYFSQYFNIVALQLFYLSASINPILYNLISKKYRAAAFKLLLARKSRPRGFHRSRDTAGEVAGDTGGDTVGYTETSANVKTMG

The first assay addresses T1, human motilin receptor (Homo sapiens, UniProt O43193).
T1 construct: purchased PerkinElmer 6110544; host or cells: CHO cells, stably transfected
Nature of the assay: Competitive radioligand binding assay (motilin receptor), Method B1. Particulars: read-out: Binding Affinity [Ki (μM)]. On the procedure:
(§1) The compounds of the present invention were evaluated for their ability to interact at the human motilin receptor and the human ghrelin receptor utilizing competitive redioligand binding assays as described in Method B1 and B2, respectively. Further characterization of the interaction can be performed utilizing the functional assays described in Methods B3 and B4 for the motilin and ghrelin receptors, respectively. All of these methods can be conducted, if so desired, in a high throughput manner to permit the simultaneous evaluation of many compounds.
Competitive Radioligand Binding Assay (Motilin Receptor)
• Membranes were prepared from CHO cells stably transfected with the human motilin receptor and utilized at a quantity of 1.5 μg/assay point. [PerkinElmer™ SignalScreen® Product #6110544, PerkinElmer, Inc. Wellesley, MA] • [^125I]-Motilin (PerkinElmer, #NEX-378); final concentration: 0.04-0.06 nM • Motilin (Bachem™, #H-4385, Bachem Bioscience Inc., King of Prussia, PA.); final concentration: 1 μM • Multiscreen® Harvest plates-GF/B (Millipore™, #MAHFB1H60, Billerica, MA) • Deep-well polypropylene titer plate (Beckman Coulter™,#267006, Fullerton, CA) • TopSeal-A™ (PerkinElmer, #6005185, Wellesley, MA) • Bottom seal (Millipore, #MATAH0P00) • MicroScint-0™(PerkinElmer,#6013611, Wellesley, MA) • Binding Buffer: 50 mM Tris-HCl (pH 7.4), 10 mM MgCl2, 1 mM EDTA, 0.1% BSA Assay Volumes: • 150 μL of membranes diluted in binding buffer • 10 μL of compound diluted in binding buffer • 10 μL of radioligand ([^125I]-Motilin) diluted in binding buffer Final Test Concentrations (N=11) for Compounds: • 10, 5, 2, 1, 0.5, 0.2, 0.1, 0.05, 0.02, 0.01, 0.005 μM. Compound Handling:
Compounds were provided frozen on dry ice at a stock concentration of 10 mM diluted in 100% DMSO and stored at −20° C. until the day of testing. On the test day, compounds were allowed to thaw at room temperature and than diluted in assay buffer according to the desired test concentrations. Under these conditions, the maximum final DMSO concentration in the assay was 0.5%.
In deep-well plates, diluted cell membranes (1.5 μg/mL) are combined with 10 μL of either binding buffer (total binding, N=5), 1 μM motilin (non-specific binding, N=3) or the appropriate concentration of test compound. The reaction is initiated by addition of 10 μl of [^125I]-motilin (final conc. 0.04-0.06 nM) to each well. Plates are sealed with TopSeal-A™, vortexed gently and incubated at room temperature for 2 hours. The reaction is arrested by filtering samples through pre-soaked (0.3% polyethyleneimine, 2 h) Multiscreen®Harvest plates using a Tomtec® Harvester (Tomtec, Hamden, CT), washed 9 times with 500 μL of cold 50 mM Tris-HCI (pH 7.4), and than plates are air-dried in a fumehood for 30 minutes. A bottom seal is applied to the plates prior to the addition of 25 μL of MicroScint-0 ® to each well. Plates are then sealed with TopSeal-A™ and counted for 30 sec per well on a TopCount® Microplate Scintillation and Luminescence Counter (PerkinElmer, Wellesley, MA) where results are expressed as counts per minute (cpm).
Data are analyzed by GrapbPad™ Prism® (GraphPad Software, San Diego, CA) using a variable slope non-linear regression analysis.
[formula] where total and non-specific binding represent the cpm obtained in the absence or presence of 1 μM motilin, respectively.
`CC(C)[C@H]1NC(=O)[C@@H](Cc2cccc(Cl)c2)NCCOc2ccccc2C[C@@H](O)CNC(=O)[C@H](CC2CC2)NC1=O` [compound 216]: the Ki lay in the range of 0.001 to 0.1 µM.

For the compound `CC(C)[C@H]1NC(=O)[C@@H](Cc2cccc(Cl)c2)NCCOc2ccccc2C[C@@H](C)CNC(=O)[C@H](CC2CC2)NC1=O` [compound 211], the Ki lay within 0.001 to 0.1 µM.

Turning to `CC(C)[C@H]1NC(=O)[C@@H](Cc2cccc(C(F)(F)F)c2)NCCOc2ccccc2C[C@@H](C)CNC(=O)[C@H](CNC(=N)N)NC1=O` [compound 204], the Ki lay within 0.001 to 0.1 µM.

`CC(C)[C@H]1NC(=O)[C@@H](Cc2cccc(C(F)(F)F)c2)NCCOc2ccccc2C[C@H](C)CNC(=O)[C@H](CNC(=N)N)NC1=O` [compound 201]: the Ki fell in the range of 0.001 to 0.1 µM.

Turning to `CC(C)[C@H]1NC(=O)[C@@H](Cc2cccc(F)c2)NCCOc2ccccc2C[C@@H](O)CNC(=O)[C@H](CC2CC2)NC1=O` [compound 219], the Ki was in the range of 0.1 to 1 µM.

As for `CC(C)[C@H]1NC(=O)[C@@H](Cc2cccc(Cl)c2)NCCOc2ccccc2C[C@H](O)CNC(=O)[C@H](CC2CC2)NC1=O` [compound 215], the Ki fell in the range of 0.001 to 0.1 µM.

As to `CCC[C@@H]1NC(=O)[C@@H](C(C)C)NC(=O)[C@@H](Cc2ccc(OC)cc2)NC(C)COc2ccccc2CCCNC1=O` (stereo partly drawn) [compound 222], the Ki fell in the range of 0.001 to 0.1 µM.

Turning to `CC(C)[C@H]1NC(=O)[C@@H](Cc2cccc(F)c2)NCCOc2ccccc2C[C@@H](C)CNC(=O)[C@H](CN(C)C)NC1=O` [compound 205], the Ki lay within 0.1 to 1 µM.

In the case of `CC1CNC(=O)[C@H](CC2CC2)NC(=O)[C@@H](C(C)C)NC(=O)[C@@H](Cc2cccc(Cl)c2)NCCOc2ccccc2C1` (stereo partly drawn) [compound 209], the Ki lay within 0.001 to 0.1 µM.

For the compound `CC(C)[C@H]1NC(=O)[C@@H](Cc2cccc(Cl)c2)N[C@@H](C)COc2ccccc2CCCNC(=O)[C@H](CNC(=N)N)NC1=O` [compound 203], the Ki fell in the range of 0.001 to 0.1 µM.

Turning to `CC1COc2ccccc2CCCNC(=O)[C@H](CC2CC2)NC(=O)[C@@H](C(C)C)NC(=O)[C@@H](Cc2cccc(Cl)c2)N1` (stereo partly drawn) [compound 223], the Ki was 0.001 to 0.1 µM.

Take `CC(C)[C@H]1NC(=O)[C@@H](Cc2cccc(F)c2)N[C@@H](C)COc2ccccc2CCCNC(=O)[C@H](CC2CC2)NC1=O` [compound 208]: the Ki was 0.001 to 0.1 µM.

`CC(C)[C@H]1NC(=O)[C@@H](Cc2cccc(F)c2)NC[C@@H](C)Oc2ccccc2CCCNC(=O)[C@H](CC2CC2)NC1=O` [compound 220]: the Ki is 0.1 to 1 µM.

Consider `CCC[C@@H]1NC(=O)[C@@H](C(C)C)NC(=O)[C@@H](Cc2ccc(O)cc2)NC[C@@H](C)Oc2ccccc2CCCNC1=O` [compound 227], for which the Ki lay within 0.1 to 1 µM.

As to `CC(C)[C@H]1NC(=O)[C@@H](Cc2cccc(F)c2)N[C@H](C)COc2ccccc2CCCNC(=O)[C@H](CC2CC2)NC1=O` [compound 217], the inhibitory constant (Ki) fell in the range of 0.1 to 1 µM.

On to `CC(C)[C@H]1NC(=O)[C@@H](Cc2cccc(F)c2)NCCOc2ccccc2C[C@H](O)CNC(=O)[C@H](CC2CC2)NC1=O` [compound 218], for which the Ki was 0.1 to 1 µM.

Regarding `CCC[C@@H]1NC(=O)[C@@H](C(C)C)NC(=O)[C@@H](Cc2ccc(O)cc2)NC[C@H](C)Oc2ccccc2CCCNC1=O` [compound 226], the Ki is 0.1 to 1 µM.

For the compound `CC(C)[C@H]1NC(=O)[C@@H](Cc2cccc(Cl)c2)NCCOc2ccccc2C[C@H](C)CNC(=O)[C@H](CC2CC2)NC1=O` [compound 207], the Ki fell in the range of 0.001 to 0.1 µM.

On to `CC(C)[C@H]1NC(=O)[C@@H](Cc2cccc(F)c2)NCCOc2ccccc2C[C@@H](C)CNC(=O)[C@H](CC2CC2)NC1=O` [compound 214], for which the Ki lay within 0.001 to 0.1 µM.

In the next assay the target is T2, human ghrelin receptor (hGHS-R1a) (Homo sapiens, UniProt Q92847).
T2 construct: purchased PerkinElmer BioSignal RBHGHSM, lot#1887; host or cells: HEK-293 cells, stably transfected
T2 sequence (Q92847 whole entry): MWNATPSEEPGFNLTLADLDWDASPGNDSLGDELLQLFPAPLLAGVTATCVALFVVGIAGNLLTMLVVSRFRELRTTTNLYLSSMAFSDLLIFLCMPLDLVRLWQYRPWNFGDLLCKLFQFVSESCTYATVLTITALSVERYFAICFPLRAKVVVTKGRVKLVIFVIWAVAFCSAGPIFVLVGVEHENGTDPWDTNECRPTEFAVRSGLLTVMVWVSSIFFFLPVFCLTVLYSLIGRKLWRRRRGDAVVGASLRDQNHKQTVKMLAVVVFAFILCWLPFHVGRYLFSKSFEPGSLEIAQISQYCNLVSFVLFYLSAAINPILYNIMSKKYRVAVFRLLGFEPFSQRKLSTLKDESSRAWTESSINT
The experiment in a line: Competitive radioligand binding assay (ghrelin receptor), Method B2. Particulars: read-out: Binding Affinity [Ki (μM)]. On the procedure: as §1
Competitive Radioligand Binding Assay (Ghrelin Receptor)
The competitive binding assay at the human growth hormone secretagogue receptor (hGHS-R1a) was carried out analogously to assays described in the literature. (Bednarek M A et al. (2000), Structure-function studies on the new growth hormone-releasing peptide ghrelin: minimal sequence of ghrelin necessary for activation of growth hormone secretagogue receptor 1 a; J Med Chem 43:43704376. Palucki B L et al. (2001), Spiro(indoline-3,4′-piperidine) growth hormone secretagogues as ghrelin mimetics; Bioorg Med Chem Lett 11:1955-1957.)
• Membranes (GHS-R/HEK 293) were prepared from HEK-293 cells stably transfected with the human ghrelin receptor (hGHS-Rla). These membranes were provided by PerkinElmer BioSignal® (#RBHGHSM, lot#1887, PerkinlElmer, Wellesley, MA) and utilized at a quantity of 0.71 μg/assay point. • [^125I]-Ghrelin (PerkinElmer, #NEX-388); final concentration: 0.0070-0.0085 nM • Ghrelin(Bachem, #H-4864, Bachem Bioscience Inc., King of Prussia, PA); final concentration: 1 μM • Multiscreen® Harvest plates-GF/C (Millipore, #MAHFC1H60, Billerica, MA) • Deep-well polypropylene titer plate (Beckman Coulter, #267006, Fullerton, CA) • TopSeal-A™ (PerkinElmer, #6005185, Wellesley, MA) • Bottom seal (Millipore, #MATAH0P00) • MicroScint-0™ (PerkinElmer, #6013611, Wellesley, MA) • Binding Buffer: 25 mM Hepes (pH 7.4), 1 mM CaCl2, 5 mM MgCl2, 2.5 mM EDTA, 0.4% BSA Assay Volumes
Competition experiments were performed in a 300 μL filtration assay format. • 220 μL of membranes diluted in binding buffer • 40 μL of compound diluted in binding buffer • 40 μL of radioligand ([^125I]-Ghrelin) diluted in binding buffer
Final test concentrations (N=1) for compounds of the present invention: • 10, 1, 0.5, 0.2, 0.1, 0.05, 0.02, 0.01, 0.005, 0.002, 0.001 μM. Compound Handling
Compounds were provided frozen on dry ice at a stock concentration of 10 mM diluted in 100% DMSO and stored at −80° C. until the day of testing. On the test day, compounds were allowed to thaw at rt overnight and then diluted in assay buffer according to the desired test concentrations. Under these conditions, the maximal final DMSO concentration in the assay was 0.1%.
In deep-well plates, 220 μL of diluted cell membranes (final concentration: 0.71 μg/well) were combined with 40 μL of either binding buffer (total binding, N =5), 1 μM ghrelin (non-specific binding, N =3) or the appropriate concentration of test compound (N =2 for each test concentration). The reaction was initiated by addition of 40 μL of [^125I]-ghrelin (final conc. 0.0070-0.0085 nM) to each well. Plates were sealed with TopSeal-A™, vortexed gently and incubated at rt for 30 min. The reaction was arrested by filtering samples through Multiscreen® Harvest plates (pre-soaked in 0.5% polyethyleneimine) using a Tomtec®Harvester (Tomtec, Hamden, CT), washed 9 times with 500 μL of cold 50 mM Tris-HCl (pH 7.4, 4° C), and then plates were air-dried in a fumehood for 30 min. A bottom seal was applied to the plates prior to the addition of 25 μL of MicroScint-0™ to each well. Plates were than sealed with TopSeal-A™ and counted for 30 sec per well on a TopCount® Microplate Scintillation and Luminescence Counter (PerkinElmer, Wellesley, MA) using a count delay of 60 sec. Results were expressed as counts per minute (cpm). […]
For the compound `CCC(C)[C@@H]1NC[C@@H](C)Oc2ccccc2CCCNC(=O)[C@@H](Cc2ccccc2)NC(=O)[C@@H](C)N(C)C1=O` (stereo partly drawn) [compound 242], the Ki fell in the range of 0.001 to 0.1 µM.

Take `CC1CNC(=O)C(Cc2ccc(F)cc2)NC(=O)C(C)N(C)C(=O)C(C2CC2)NCCOc2ccccc2C1` (stereo not drawn) [compound 248]: the Ki was in the range of 0.1 to 1 µM.

For the compound `CC1CNC(C2CC2)C(=O)N(C)C(C)C(=O)NC(Cc2ccc(F)cc2)C(=O)NCCCc2ccccc2O1` (stereo not drawn) [compound 244], the Ki lay in the range of 0.001 to 0.1 µM.

For `CCC(C)C1NCCOc2ccccc2CC(C)CNC(=O)C(Cc2cccc(Cl)c2)NC(=O)C2(CCCC2)NC1=O` (stereo not drawn) [compound 257], the inhibition constant (Ki) fell in the range of 0.001 to 0.1 µM.

As for `CCC(C)C1NCC(C)Oc2ccccc2CCCNC(=O)C(Cc2cccc(Cl)c2)NC(=O)C2(CCCC2)NC1=O` (stereo not drawn) [compound 254], the Ki fell in the range of 0.001 to 0.1 µM.

For the compound `CCC(C)[C@@H]1NC[C@H](C)Oc2ccccc2CCCNC(=O)[C@@H](Cc2ccccc2)NC(=O)[C@@H](C)N(C)C1=O` (stereo partly drawn) [compound 243], the Ki lay within 0.001 to 0.1 µM.

Turning to `CC1COc2ccccc2CCCNC(=O)C(Cc2ccc(F)cc2)NC(=O)C(C)N(C)C(=O)C(C2CC2)N1` (stereo not drawn) [compound 241], the Ki was in the range of 0.001 to 0.1 µM.

Take `CCC(C)C1NCCOc2ccccc2C(C)CCNC(=O)C(Cc2cccc(Cl)c2)NC(=O)C2(CCCC2)NC1=O` (stereo not drawn) [compound 256]: the Ki was in the range of 0.1 to 1 µM.
